Data from patent US5919897A (priority 1995, dated 1999).
Where no end group is shown, it is not given here. [ ]: non-standard residue; d: D form.

Assays:
μ receptor = target: T1, μ receptor (Homo sapiens, UniProt P35372); experiment: Adenylyl cyclase assay using human SH-SY5Y neuroblastoma cell line membranes; format: biochemical
T1 construct: An adenylyl cyclase assay using human SH-SY5Y neuroblastoma cell line membranes; endogenous in cells; host or cells: human SH-SY5Y neuroblastoma cells, differentiated with retinoic acid; membranes
Method: An adenylyl cyclase assay using human SH-SY5Y neuroblastoma cell line membranes was used to rapidly determine the opioid agonists or antagonist properties of individual peptides.
After the initial centrifugation at 200×g for 15 min at 4° C., the cells were resuspended in sucrose buffer (0.32M sucrose, 40 mM HEPES, 2 mM EDTA, pH 7.6). Cells were centrifuged again at 200×g, then homogenized in sucrose buffer with five strokes of a Dounce Homogenizer (Wheaton Instruments, Millville, N.J.). Membranes were centrifuged at 22000×g for 20 min at 4° C., then resuspended in sucrose buffer. […] SH-SY5Y membranes at a protein concentration of 1-4 mg/ml were stored at -80° C.
SH-SY5Y membranes were incubated in a final volume of 100 μl of 40 mM HEPES, pH 7.7, containing 15 units of creatine phosphokinase, 20 mM phosphocreatine, 1 mM 1,10-o-phenanthroline, 60 μM isobutylmethylxanthine (IBMX), 50 μM ATP, 50 μM GTP, 3 mM MgCl2 and 100 mM NaCl. Each of the agonists and antagonists tested were included at final concentrations of 100 μM and 500 μM, respectively. The reaction was initiated by the addition of 36 μg of membrane protein. After 15 min at 30° C., the reaction was stopped by the addition of 100μl of cold 4.5% perchloric acid. The samples were neutralized by the addition 40 μl of cold 30% potassium bicarbonate. Finally, the membranes were centrifuged at 12000×g for 4 min at 4° C. in a microcentrifuge; The amount of cyclic AMP present in 100μl of the supernatant, equivalent to the cyclic AMP produced by 15 μg of membrane protein, was determined using a cyclic AMP kit (Diagnostic Products, Los Angeles, Calif.). […] [^3 H]-cyclic AMP, 0.9 μCi, was added into 6 ml of H2 O, and 100 μl of the diluted [^3 H]-cyclic AMP was added to the assay tubes. The final supernatants were counted in 10 ml of Ecolite (+) scintillation fluid (ICN Pharmaceuticals, Covina, Calif.).

MU RECEPTOR = experiment: Mu receptor agonist or antagonist activity, by either the adenylyl cyclase assay or the GPI assay (Table 13)

T1 sequence (P35372 whole entry): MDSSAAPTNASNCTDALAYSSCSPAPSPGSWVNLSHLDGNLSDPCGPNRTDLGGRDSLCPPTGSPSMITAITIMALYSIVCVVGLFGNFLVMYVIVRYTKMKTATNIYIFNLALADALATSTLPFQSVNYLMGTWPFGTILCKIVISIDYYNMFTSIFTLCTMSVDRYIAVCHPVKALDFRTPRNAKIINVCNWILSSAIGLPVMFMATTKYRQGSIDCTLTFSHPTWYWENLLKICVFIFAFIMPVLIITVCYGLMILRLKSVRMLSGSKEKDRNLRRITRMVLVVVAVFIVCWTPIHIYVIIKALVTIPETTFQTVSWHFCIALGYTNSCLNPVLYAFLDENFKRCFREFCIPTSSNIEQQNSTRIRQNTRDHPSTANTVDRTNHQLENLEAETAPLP

Molecule	% Basal Control (cyclic AMP) (μ receptor; DAMGO 1 μM alone, ANTAGONISTS section) [%]	% Basal Control +ICI 174,864 (μ receptor; DAMGO 1 μM, ANTAGONISTS section) [%]	% Basal Control +ICI 174,864 (μ receptor; agonist 100 μM plus ICI 174,864 (antagonists 500 μM)) [%]	% Basal Control +Naloxone (μ receptor; agonist 100 μM plus naloxone (antagonists 500 μM)) [%]	% Basal Control (cyclic AMP) (μ receptor; agonist alone, 100 μM, SH-SY5Y membranes) [%]	AGONIST OR ANTAGONIST (MU RECEPTOR)
C[C@@H](NC(=O)[C@@H](N)Cc1ccc(O)cc1)C(=O)NCC(=O)N(C)[C@@H](Cc1ccccc1)C(=O)NCCO [DAMGO, [D-Ala^2,MePhe^4, Gly-ol^5]enkephalin]	61 ± 5	95 ± 3	28 ± 3	77 ± 8	34 ± 6	–
[dI][dM][dT][dW]G[dP]-NH2 [SEQ ID NO. 130]	–	–	–	–	–	Agonist
